Source: ChEMBL document CHEMBL3868623, “Difluorocyclobutylacetylenes as positive allosteric modulators of mGluR5 with reduced bioactivation potential” (Bioorg Med Chem Lett, 2016)

Experiments:
[1] = in vitro; details: human, liver microsomes
[2] = in vitro; details: mouse, liver microsomes

Compound | remaining at 10 min [1] | remaining at 10 min [2]
O=C1N[C@H](c2cncc(C#Cc3ccccc3)c2)[C@@H](c2cccc(F)c2)O1 | 76% | 71%
O=C1N[C@H](c2cncc(C#CC3CC(F)(F)C3)c2)[C@@H](c2ccc(F)cc2F)O1 | 100% | 84%
C[C@]1(O)C[C@@H](C#Cc2cncc([C@H]3NC(=O)O[C@@H]3c3cccc(F)c3)c2)C1 | 95% | 81%
O=C1N[C@H](c2cncc(C#C[C@H]3C[C@H](F)C3)c2)[C@@H](c2cccc(F)c2)O1 | 81% | 37%
O=C1N[C@H](c2cncc(C#C[C@H]3C[C@@H](F)C3)c2)[C@@H](c2cccc(F)c2)O1 | 83% | 57%
O=C1N[C@H](c2cncc(C#C[C@H]3C[C@H](O)C3)c2)[C@@H](c2cccc(F)c2)O1 | 100% | 74%
O=C1N[C@H](c2cncc(C#C[C@H]3C[C@@H](O)C3)c2)[C@@H](c2cccc(F)c2)O1 | 100% | 51%
O=C1N[C@H](c2cncc(C#CC3CCOC3)c2)[C@@H](c2cccc(F)c2)O1 (stereo not given in full) | 93% | 63%
C[C@]1(O)C[C@H](C#Cc2cncc([C@H]3NC(=O)O[C@@H]3c3cccc(F)c3)c2)C1 | 88% | 78%
O=C1N[C@H](c2cncc(C#CC3CC3)c2)[C@@H](c2cccc(F)c2)O1 | 81% | 69%
